In one experiment the target is T1, Recombinant JAK1 (Homo sapiens, UniProt P23458).
T1 construct: purchased Carna Biosciences
Nature of the experiment: JAK biochemical assay (LANCE Ultra TR-FRET), JAK1. The following applies: recombinant JAK1, TR-FRET; read-out: Biochemical Assay (μM) JAK1. In short, it runs like this:
(§1)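 % inhibition relative to vehicle was derived from TR-FRET signal proportional to ULight-substrate phosphorylation. Reactions used recombinant kinase in HEPES pH 7.5 buffer containing EGTA, MgCl2, DTT and Tween-20.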
For orientation: Time-resolved FRET reads energy transfer from a long-lived donor to a nearby acceptor.

For another experiment, the target named is T2, Recombinant JAK2 (Homo sapiens, UniProt O60674).
T2 construct: purchased Carna Biosciences
Nature of the experiment: JAK biochemical assay (LANCE Ultra TR-FRET), JAK2. The following applies: recombinant JAK2, TR-FRET; read-out: Biochemical Assay (μM) JAK2. In short, it runs like this: as §1

For a further experiment, the target named is T3, Recombinant JAK3 (Homo sapiens, UniProt P52333).
T3 construct: purchased Carna Biosciences
T3 sequence (P52333 1-1124): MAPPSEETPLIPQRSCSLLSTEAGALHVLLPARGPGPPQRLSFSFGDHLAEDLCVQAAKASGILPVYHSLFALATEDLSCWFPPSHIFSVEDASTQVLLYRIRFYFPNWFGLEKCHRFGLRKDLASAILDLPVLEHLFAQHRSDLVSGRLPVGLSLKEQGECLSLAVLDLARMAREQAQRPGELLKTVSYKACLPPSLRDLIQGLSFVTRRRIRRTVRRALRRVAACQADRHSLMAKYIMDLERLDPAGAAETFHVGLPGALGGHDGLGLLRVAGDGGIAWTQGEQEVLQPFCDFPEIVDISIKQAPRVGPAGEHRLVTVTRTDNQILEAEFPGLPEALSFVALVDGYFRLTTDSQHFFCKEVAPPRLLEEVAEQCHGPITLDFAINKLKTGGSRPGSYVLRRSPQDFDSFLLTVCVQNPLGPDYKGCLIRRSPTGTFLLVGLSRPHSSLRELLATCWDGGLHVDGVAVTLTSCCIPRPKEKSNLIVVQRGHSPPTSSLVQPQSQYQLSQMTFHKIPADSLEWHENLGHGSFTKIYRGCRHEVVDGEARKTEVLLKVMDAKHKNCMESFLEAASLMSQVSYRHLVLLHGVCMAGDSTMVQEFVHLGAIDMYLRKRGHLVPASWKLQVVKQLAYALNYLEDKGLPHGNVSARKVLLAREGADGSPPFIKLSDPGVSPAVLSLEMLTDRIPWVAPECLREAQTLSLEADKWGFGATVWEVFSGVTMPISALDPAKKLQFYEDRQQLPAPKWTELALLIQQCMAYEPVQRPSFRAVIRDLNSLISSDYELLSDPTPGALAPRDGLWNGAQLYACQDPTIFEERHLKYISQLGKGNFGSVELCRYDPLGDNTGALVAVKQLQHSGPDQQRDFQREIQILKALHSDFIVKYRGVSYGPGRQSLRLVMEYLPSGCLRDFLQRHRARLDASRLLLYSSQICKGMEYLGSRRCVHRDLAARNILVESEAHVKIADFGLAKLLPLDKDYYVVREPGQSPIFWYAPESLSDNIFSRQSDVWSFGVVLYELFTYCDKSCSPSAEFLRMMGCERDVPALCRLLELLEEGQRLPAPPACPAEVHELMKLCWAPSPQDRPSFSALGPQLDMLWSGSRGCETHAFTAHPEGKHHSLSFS
The experiment is described as follows: JAK biochemical assay (LANCE Ultra TR-FRET), JAK3. The following applies: recombinant JAK3, TR-FRET; read-out: Biochemical Assay (μM) JAK3. In short, it runs like this: as §1

Another experiment deals with T4, Recombinant TYK2 (Homo sapiens, UniProt P29597).
T4 construct: purchased Carna Biosciences
The experiment is described as follows: JAK biochemical assay (LANCE Ultra TR-FRET), TYK2. Conditions: recombinant TYK2, TR-FRET; read-out: Biochemical Assay (μM) TYK2. The method, boiled down: as §1

Experiment [1] concerns STAT3 phosphorylation by IL-6 in TF-1 cells. Nature of the experiment: JAK cellular assay: STAT3 phosphorylation by IL-6 in TF-1 cells (HTRF). It is filed as cell-based. The following applies: IL-6 30 ng/ml, pSTAT3 HTRF, read-out: Cell Based Assay (μM) TF-1/IL-6/pSTAT3. The method, boiled down:
(§2)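 Phospho-STAT3 (IL-6, 30 ng/ml) and phospho-STAT5 (GMCSF, 5 ng/ml) read by HTRF in lysates after 20 min cytokine exposure, minus unstimulated-cell background. Cells were serum-starved overnight, plated at 120,000/well, given compound 30 min at 37 °C beforehand; DMSO 0.2% final.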

Experiment [2] relates to STAT5 phosphorylation by GMCSF in TF-1 cells. The experiment is described as follows: JAK cellular assay: STAT5 phosphorylation by GMCSF in TF-1 cells (HTRF). In kind it is cell-based. Conditions: TF-1 cells, GMCSF 5 ng/ml, pSTAT5 HTRF, read-out: Cell Based Assay (μM) TF-1/GMCSF/pSTAT5. In short, it runs like this:
as §2

Like-named read-outs stand apart in the source and are kept apart here.

T4 sequence (P29597 whole entry): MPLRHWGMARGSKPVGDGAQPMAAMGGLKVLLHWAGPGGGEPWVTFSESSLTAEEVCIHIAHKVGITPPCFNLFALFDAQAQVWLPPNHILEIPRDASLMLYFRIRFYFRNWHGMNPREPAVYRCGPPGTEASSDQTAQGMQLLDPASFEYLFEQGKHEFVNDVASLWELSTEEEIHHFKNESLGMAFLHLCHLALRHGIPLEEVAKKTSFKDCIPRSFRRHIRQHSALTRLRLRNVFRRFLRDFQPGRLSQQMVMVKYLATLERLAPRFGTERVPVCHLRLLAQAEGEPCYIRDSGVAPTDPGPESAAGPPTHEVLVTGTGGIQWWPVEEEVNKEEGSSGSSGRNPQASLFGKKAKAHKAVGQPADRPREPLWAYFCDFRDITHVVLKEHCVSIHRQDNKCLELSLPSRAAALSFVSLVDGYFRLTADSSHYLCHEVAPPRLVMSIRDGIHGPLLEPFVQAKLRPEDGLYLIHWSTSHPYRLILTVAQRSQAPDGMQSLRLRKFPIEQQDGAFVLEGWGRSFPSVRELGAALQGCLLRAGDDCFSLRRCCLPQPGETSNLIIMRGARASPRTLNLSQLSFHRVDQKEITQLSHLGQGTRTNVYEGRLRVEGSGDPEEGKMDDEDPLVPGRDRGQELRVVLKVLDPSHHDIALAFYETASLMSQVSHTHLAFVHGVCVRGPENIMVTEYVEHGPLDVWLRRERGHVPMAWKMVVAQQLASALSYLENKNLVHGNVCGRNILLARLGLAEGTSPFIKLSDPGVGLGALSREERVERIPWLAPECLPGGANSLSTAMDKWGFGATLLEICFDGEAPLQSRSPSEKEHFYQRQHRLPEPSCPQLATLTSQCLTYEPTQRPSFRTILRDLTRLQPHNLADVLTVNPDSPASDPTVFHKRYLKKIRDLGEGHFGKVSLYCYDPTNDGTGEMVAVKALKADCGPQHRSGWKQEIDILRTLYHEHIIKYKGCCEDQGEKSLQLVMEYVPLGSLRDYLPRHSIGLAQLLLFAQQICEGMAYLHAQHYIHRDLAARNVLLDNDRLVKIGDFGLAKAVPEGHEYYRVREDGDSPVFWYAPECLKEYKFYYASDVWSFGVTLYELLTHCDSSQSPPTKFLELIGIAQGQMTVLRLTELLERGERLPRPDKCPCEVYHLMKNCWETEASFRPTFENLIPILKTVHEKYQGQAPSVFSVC
T1 sequence (P23458 whole entry): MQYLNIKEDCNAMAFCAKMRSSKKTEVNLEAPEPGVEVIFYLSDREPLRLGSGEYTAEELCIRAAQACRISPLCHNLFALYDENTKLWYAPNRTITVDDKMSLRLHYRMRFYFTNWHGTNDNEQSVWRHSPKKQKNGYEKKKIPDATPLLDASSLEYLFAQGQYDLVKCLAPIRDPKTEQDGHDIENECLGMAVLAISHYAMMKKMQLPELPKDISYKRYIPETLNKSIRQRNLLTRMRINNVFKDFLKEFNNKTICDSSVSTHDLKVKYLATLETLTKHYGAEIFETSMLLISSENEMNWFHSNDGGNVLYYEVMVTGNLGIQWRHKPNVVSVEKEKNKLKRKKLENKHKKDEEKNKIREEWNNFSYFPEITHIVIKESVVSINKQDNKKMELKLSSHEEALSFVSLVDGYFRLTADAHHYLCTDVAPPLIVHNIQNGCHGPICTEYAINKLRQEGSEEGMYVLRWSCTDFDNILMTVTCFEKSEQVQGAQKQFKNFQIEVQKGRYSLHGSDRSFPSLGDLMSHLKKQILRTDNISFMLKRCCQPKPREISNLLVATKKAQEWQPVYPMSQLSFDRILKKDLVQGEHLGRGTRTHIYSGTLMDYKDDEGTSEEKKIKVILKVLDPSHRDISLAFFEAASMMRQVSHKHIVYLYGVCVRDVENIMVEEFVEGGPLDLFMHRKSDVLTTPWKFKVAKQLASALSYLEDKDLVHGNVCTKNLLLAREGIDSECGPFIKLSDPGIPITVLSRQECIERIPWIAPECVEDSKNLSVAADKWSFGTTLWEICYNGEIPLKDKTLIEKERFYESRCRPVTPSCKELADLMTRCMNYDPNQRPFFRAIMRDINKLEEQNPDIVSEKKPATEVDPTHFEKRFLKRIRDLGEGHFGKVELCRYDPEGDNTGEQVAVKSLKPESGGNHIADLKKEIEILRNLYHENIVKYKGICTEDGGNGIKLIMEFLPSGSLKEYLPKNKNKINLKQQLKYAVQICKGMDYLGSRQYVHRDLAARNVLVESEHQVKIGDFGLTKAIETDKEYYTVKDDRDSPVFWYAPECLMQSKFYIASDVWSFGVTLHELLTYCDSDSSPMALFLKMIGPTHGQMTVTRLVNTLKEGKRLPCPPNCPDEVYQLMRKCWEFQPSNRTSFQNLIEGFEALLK
T2 sequence (O60674 whole entry): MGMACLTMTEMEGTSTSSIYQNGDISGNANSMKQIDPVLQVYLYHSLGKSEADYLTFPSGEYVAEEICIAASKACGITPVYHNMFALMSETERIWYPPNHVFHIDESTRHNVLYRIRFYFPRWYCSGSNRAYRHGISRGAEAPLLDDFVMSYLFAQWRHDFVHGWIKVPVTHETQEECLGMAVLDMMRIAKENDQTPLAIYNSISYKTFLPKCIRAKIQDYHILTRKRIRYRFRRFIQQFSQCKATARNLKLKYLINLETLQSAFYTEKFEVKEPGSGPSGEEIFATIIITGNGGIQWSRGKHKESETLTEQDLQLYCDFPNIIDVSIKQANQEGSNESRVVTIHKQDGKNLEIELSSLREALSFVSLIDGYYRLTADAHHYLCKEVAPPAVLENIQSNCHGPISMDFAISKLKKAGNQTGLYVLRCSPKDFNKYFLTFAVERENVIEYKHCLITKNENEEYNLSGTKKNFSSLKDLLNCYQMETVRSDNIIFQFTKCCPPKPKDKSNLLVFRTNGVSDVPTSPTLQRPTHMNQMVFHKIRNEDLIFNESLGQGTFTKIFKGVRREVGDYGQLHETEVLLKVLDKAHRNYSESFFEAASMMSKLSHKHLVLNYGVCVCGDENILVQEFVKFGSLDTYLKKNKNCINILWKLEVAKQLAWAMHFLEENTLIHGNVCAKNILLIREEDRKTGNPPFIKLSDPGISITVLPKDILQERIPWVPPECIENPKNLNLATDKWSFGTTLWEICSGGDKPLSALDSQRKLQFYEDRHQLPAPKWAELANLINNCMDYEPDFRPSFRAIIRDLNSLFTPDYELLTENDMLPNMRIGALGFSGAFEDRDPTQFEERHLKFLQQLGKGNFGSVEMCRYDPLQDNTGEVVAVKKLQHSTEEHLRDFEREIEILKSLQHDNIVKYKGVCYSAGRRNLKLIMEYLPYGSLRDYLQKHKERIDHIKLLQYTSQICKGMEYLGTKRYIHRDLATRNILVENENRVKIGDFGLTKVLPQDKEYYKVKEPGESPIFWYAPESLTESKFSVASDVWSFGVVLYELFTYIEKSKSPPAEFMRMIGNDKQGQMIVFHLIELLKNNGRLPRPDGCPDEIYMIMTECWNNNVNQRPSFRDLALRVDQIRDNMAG

Turning to `O=C(C1CC1)N1CCC(C(O)(c2ccc(-n3cc(-c4ccnc5[nH]cnc45)cn3)nc2)C(F)(F)F)CC1` (stereo not drawn) [Example 1220, (4-(1-(6-(4-(3H-imidazo[4,5-b]pyridin-7-yl)-1H-pyrazol-1-yl)pyridin-3-yl)-2,2,2-trifluoro-1-hydroxyethyl)piperidin-1-yl)(cyclopropyl)methanone], the IC50 is under 0.1 µM on Recombinant JAK1; under 0.1 µM at Recombinant JAK2; under 0.1 µM on Recombinant JAK3; over 0.5 µM on Recombinant TYK2; over 1 µM in experiment [1] (Homo sapiens, TF-1, TF-1 cells); over 1 µM in experiment [2] (Homo sapiens).

Take `CC(CC#N)NC(=O)n1cc(-c2ccnc3[nH]c(=O)[nH]c23)cn1` (stereo not drawn) [Example 1046, N-(1-cyanopropan-2-yl)-4-(2,3-dihydro-2-oxo-1H-imidazo[4,5-b]pyridin-7-yl)-1H-pyrazole-1-carboxamide]: the IC50 was under 0.5 µM at Recombinant JAK1; under 0.5 µM at Recombinant JAK2; under 0.5 µM at Recombinant JAK3; under 0.5 µM at Recombinant TYK2; over 10 µM in experiment [1] (Homo sapiens, TF-1, TF-1 cells); over 10 µM in experiment [2] (Homo sapiens).

`CC(CC#N)NC(=O)n1cc(-c2ccnc3[nH]c(=O)[nH]c23)cn1` (stereo not drawn) [Example 1052, N-(1-cyanopropan-2-yl)-4-(2,3-dihydro-2-oxo-1H-imidazo[4,5-b]pyridin-7-yl)-1H-pyrazole-1-carboxamide]: the IC50 is under 0.5 µM on Recombinant JAK1; under 0.5 µM at Recombinant JAK2; over 0.5 µM on Recombinant JAK3; under 0.5 µM on Recombinant TYK2; over 10 µM in experiment [1] (TF-1 cells); over 10 µM in experiment [2].

On to `CC(C)[C@H](C#N)NC(=O)n1cc(-c2ccnc3[nH]c(=O)[nH]c23)cn1` [Example 1049, N-((R)-1-cyano-2-methylpropyl)-4-(2,3-dihydro-2-oxo-1H-imidazo[4,5-b]pyridin-7-yl)-1H-pyrazole-1-carboxamide], for which the IC50 at Recombinant JAK1 was under 0.5 µM; at Recombinant JAK2, under 0.5 µM; on Recombinant JAK3 it was under 0.5 µM; at Recombinant TYK2, under 0.5 µM; in experiment [1] (Homo sapiens, TF-1, TF-1 cells), under 10 µM; in experiment [2] (Homo sapiens), over 10 µM.

Regarding `N#CCc1ccc(-n2cc(-c3ccnc4[nH]cnc34)cn2)cc1` [Example 1099, 2-(4-(4-(3H-imidazo[4,5-b]pyridin-7-yl)-1H-pyrazol-1-yl)phenyl)acetonitrile], the IC50 at Recombinant JAK1 is under 0.5 µM; on Recombinant JAK2, under 0.5 µM; at Recombinant JAK3, under 0.5 µM; at Recombinant TYK2, over 1 µM; in experiment [1] (Homo sapiens, TF-1, TF-1 cells), over 1 µM; in experiment [2] (Homo sapiens), over 10 µM.

Take `c1cc(-c2cnn(-c3ccc(CC4COC4)cn3)c2)c2nc[nH]c2n1` [Example 1081, 7-(1-(5-((oxetan-3-yl)methyl)pyridin-2-yl)-1H-pyrazol-4-yl)-3H-imidazo[4,5-b]pyridine]: the IC50 at Recombinant JAK1 was under 0.5 µM; on Recombinant JAK2 it was over 0.5 µM; on Recombinant JAK3 it was under 0.5 µM; at Recombinant TYK2, over 10 µM; in experiment [1] (Homo sapiens, TF-1, TF-1 cells), over 1 µM; in experiment [2] (Homo sapiens) it was over 10 µM.

`NS(=O)(=O)CCC(c1ccc(-n2cc(-c3ccnc4[nH]cnc34)cn2)nc1)C(F)(F)F` (stereo not drawn) [Example 1141, 3-(6-(4-(3H-imidazo[4,5-b]pyridin-7-yl)-1H-pyrazol-1-yl)pyridin-3-yl)-4,4,4-trifluorobutane-1-sulfonamide]: the IC50 is under 0.1 µM at Recombinant JAK1; under 0.1 µM at Recombinant JAK2; under 0.1 µM on Recombinant JAK3; over 1 µM on Recombinant TYK2; under 1 µM in experiment [1] (Homo sapiens, TF-1, TF-1 cells); over 10 µM in experiment [2] (Homo sapiens).

For the compound `FC(F)(F)C(OCCNC1CC1)c1ccc(-n2cc(-c3ccnc4[nH]cnc34)cn2)nc1` (stereo not drawn) [Example 1197, N-(2-(1-(6-(4-(3H-imidazo[4,5-b]pyridin-7-yl)-1H-pyrazol-1-yl)pyridin-3-yl)-2,2,2-trifluoroethoxy)ethyl)cyclopropanamine], the IC50 on Recombinant JAK1 was under 0.1 µM; on Recombinant JAK2, under 0.1 µM; at Recombinant JAK3, under 0.1 µM; on Recombinant TYK2, over 0.5 µM; in experiment [1] (Homo sapiens, TF-1, TF-1 cells), over 0.3 µM; in experiment [2] (Homo sapiens), over 1 µM.
